Reference: patent publication US20080153896A1, “Polymorphic Forms of an HMG-CoA Reductase Inhibitor and Uses Thereof” (priority 2006, published 2008)

Columns and labels:
[1] = Intrinsic clearance in human liver microsomes; conditions: vs atorvastatin
[2] = tested on: rat primary hepatocytes; assay: Inhibition of cholesterol synthesis in rat primary hepatocytes; type: cell-based; conditions: vs atorvastatin
[3] = target: CYP3A4 (cytochrome P450 3A4) (Homo sapiens, UniProt P08684); assay: Substrate for metabolic enzyme CYP3A4
CYP3A4 (cytochrome P450 3A4), sequence (P08684 whole entry): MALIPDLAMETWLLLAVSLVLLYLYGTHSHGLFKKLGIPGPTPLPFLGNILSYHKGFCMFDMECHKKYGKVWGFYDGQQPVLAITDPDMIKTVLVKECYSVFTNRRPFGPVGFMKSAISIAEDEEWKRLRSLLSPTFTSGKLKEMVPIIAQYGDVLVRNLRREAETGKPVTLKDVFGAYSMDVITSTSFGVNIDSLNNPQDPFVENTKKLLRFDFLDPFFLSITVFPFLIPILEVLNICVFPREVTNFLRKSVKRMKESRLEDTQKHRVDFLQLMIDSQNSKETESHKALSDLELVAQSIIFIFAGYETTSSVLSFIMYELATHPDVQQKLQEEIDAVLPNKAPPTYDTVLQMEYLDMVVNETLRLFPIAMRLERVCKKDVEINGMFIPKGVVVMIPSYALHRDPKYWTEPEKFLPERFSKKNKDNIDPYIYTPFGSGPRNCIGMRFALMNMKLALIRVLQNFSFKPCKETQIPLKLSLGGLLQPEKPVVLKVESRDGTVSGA

[4] = target: T1, 3-hydroxy-3-methylglutaryl-coenzyme A (HMG-CoA) reductase (Homo sapiens, UniProt P04035); assay: HMG-CoA reductase inhibition, potency compared with atorvastatin; type: biochemical; conditions: vs atorvastatin
T1 sequence (P04035 1-888): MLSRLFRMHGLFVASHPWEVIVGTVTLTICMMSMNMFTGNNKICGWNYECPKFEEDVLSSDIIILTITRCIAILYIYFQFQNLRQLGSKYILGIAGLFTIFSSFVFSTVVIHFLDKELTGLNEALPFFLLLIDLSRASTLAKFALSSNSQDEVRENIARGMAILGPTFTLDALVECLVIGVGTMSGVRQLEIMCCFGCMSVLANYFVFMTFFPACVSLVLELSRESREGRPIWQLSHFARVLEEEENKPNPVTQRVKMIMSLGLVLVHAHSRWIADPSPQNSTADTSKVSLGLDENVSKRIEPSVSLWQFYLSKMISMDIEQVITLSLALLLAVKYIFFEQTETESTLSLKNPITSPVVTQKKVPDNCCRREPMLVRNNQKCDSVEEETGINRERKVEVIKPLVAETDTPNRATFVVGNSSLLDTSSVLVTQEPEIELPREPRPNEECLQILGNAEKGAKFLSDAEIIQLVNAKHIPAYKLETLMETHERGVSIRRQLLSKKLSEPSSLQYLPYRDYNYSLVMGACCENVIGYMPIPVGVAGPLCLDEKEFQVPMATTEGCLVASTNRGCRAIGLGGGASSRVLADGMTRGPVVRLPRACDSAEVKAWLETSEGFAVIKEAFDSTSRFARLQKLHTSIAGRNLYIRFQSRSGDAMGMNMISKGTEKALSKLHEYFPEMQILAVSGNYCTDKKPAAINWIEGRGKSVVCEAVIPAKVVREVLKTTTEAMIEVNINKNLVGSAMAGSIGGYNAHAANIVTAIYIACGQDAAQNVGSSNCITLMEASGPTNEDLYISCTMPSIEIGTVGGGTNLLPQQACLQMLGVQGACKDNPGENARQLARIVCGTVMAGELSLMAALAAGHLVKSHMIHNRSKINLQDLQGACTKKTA

[5] = tested on: NRK-49F (Fibroblast) and L6 (Myoblast); assay: Inhibition of cholesterol synthesis in extra hepatic cells/cell lines
[6] = tested on: cholesterol synthesis; assay: Inhibition of cholesterol synthesis in an in vivo rat model; conditions: vs atorvastatin

## (3R,5R)-7-[2-(4-fluorophenyl)-5-isopropyl-3-phenyl-4-[(4-hydroxymethylphenylamino)carbonyl]-pyrrol-1-yl]-3,5-dihydroxy-heptanoic acid hemi calcium salt [compound of Formula I]
[1]
  intrinsic clearance: significantly less than atorvastatin
[2]
  potency in the inhibition of cholesterol synthesis: greater potency
[3]
  substrate for the metabolic enzyme CYP3A4: not a major substrate
[4]
  potency relative to atorvastatin: equipotent to atorvastatin
[5]; NRK-49F and L6, vs atorvastatin
  selectivity, inhibition of cholesterol synthesis in rat primary hepatocytes over extra hepatic cells/cell lines: greater
[5]; vs atorvastatin
  hepatoselectivity: better hepatoselectivity
[6]
  potency in inhibiting cholesterol synthesis: more potent than atorvastatin
